How the values were obtained:
[1] = tested on: HK2, a transformed renal epithelial cell line; test: High-throughput proliferative screen, non-cancerous cells; type: cell-based
Description: (§1) Cells were seeded at 5,000 cells/well in clear-bottom 96-well plates in triplicate in Maintenance Media. Drug treatment was applied at a concentration of 1:1000 in reduced serum (3%) Maintenance Media. After 72 hours, cells were washed with PBS, and stored at −80° C. prior to analysis using CyQuant® Proliferation Analysis Kit (Invitrogen) as per manufacturers' protocol for relative fluorescence units. Alternatively, cells were plated 2×10^5/well in 12-well plates (Midwest Scientific) in triplicate prior to drug treatment. After 120 hour treatment, cell number was established using a Coulter Particle Counter (Beckman). Or, cells were plated (0.5 or 1×10^5/well) in 24-well plates (Midwest Scientific), 3×. After 72 hour treatment, cell number established using Coulter Particle Counter (Beckman). Oleic acid-albumin (Sigma Aldrich) was added to media at 5 μM, and was applied adjuvant to drug treatment. Drug stocks were prepared in DMSO (Sigma) at 1000×. EC50 dosing per cell line was calculated using CalcuSyn® analytical software.
In order to identify potential SCD1 inhibitors, a high-throughput proliferative-based screening method was used, with four ccRCC cell lines including A498, ACHN, Caki1, and Caki2. The SCD1 inhibitor MF-438 was included as a positive control. Known compounds ChemBL375265 (Liu G, Lynch J K, Freeman J, et al. Discovery of potent, selective, orally bioavailable stearoyl-CoA desaturase 1 inhibitors. Journal of medicinal chemistry. Jun. 28, 2007; 50(13): 3086-3100) (SetA.100) and SAR707 (Voss M D, Zoller G, Matter H, et al. Discovery and pharmacological characterization of SAR707 as novel and selective small molecule inhibitor of stearoyl-CoA desaturase (SCD1). European journal of pharmacology. May 5, 2013; 707(1-3): 140-146) (TC03.100) were included as single-blinded positive controls, and are indicated with an asterisk (*). […]

[2] = tested on: THJ16T ATC cell xenograft; test: THJ16T xenograft model; type: in vivo, female athymic nu/nu mice
Description: Formalin-fixed, paraffin-embedded subject tissues were mounted on slides, blocked with Diluent (DakoCytomation) for 30 min, and then probed for SCD (Sigma-Aldrich, #HPA012107). IHC scoring was performed as previously described (von Roemeling C A, Marlow L A, Wei J J, et al. Stearoyl-CoA desaturase 1 is a novel molecular therapeutic target for clear cell renal cell carcinoma. Clin Cancer Res. May 1 2013; 19(9):2368-2380). Cases where insufficient tumor tissue presented were excluded. 20× images were obtained using Scanscope XT and Imagescope software.
1×10^6 THJ16T ATC cells were subcutaneously injected in female athymic nu/nu mice (Harlan Laboratories). Treatment was initiated once tumor volumes reached 50-100 mm^3. MF-438 was suspended in 0.5% carboxymethyl-cellulose containing strawberry drink flavoring(0.1 g/mL) in sterilized H2O at 25 mg/kg in a 100 μl dose, and administered via oral gavage once daily. Carfilzomib was solubilized in DMSO (4% of FC), suspended in 100% corn oil at 4 mg/kg per 50 uL dose and administered via intraperitoneal injection twice weekly on consecutive days. Tumor volume(0.5236[L*W*H]) and body weight were measured 2×/week. N=10 mice/group.
MF-438 was tested in combination with carfilzomib in vivo in a THJ16T xenograft model. […] J Clin Endocrinol Metab. 2010; 95(12):5338-47). […] Saline was administered as necessary. These adverse events resolved 24-48 hours after the second administration of carfilzomib. […] However, no other significant adverse events were observed. […] IHC analysis of tumors resected from each treatment group was performed.

[3] = biological target: T1, SCD1 (Homo sapiens, UniProt O00767); conditions: known inhibitors; cited from earlier work
T1 sequence (O00767 1-359): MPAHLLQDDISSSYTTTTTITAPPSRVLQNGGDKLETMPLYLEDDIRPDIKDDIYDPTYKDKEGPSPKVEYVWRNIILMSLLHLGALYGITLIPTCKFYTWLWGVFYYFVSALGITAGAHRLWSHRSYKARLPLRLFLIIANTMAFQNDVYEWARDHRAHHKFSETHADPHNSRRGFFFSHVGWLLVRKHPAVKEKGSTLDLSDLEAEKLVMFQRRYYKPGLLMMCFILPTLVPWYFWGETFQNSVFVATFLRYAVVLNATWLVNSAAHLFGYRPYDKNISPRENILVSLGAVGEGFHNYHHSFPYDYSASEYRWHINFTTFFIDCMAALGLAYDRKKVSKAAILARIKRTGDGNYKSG

[4] = tested on: FTC cells; test: Proliferative dose response of thyroid cells; type: cell-based; conditions: 72H treatment
Description: as §1
(§2) The efficacy of pharmacologic inhibition of this enzyme on tumor cell proliferation after a 72H treatment was determined, using A939572-a commercially available small molecule SCD1 inhibitor (Xin Z, Zhao H, Serby M D, Liu B, Liu M, Szczepankiewicz B G, Nelson L T, Smith H T, Suhar T S, Janis R S, Cao N, Camp H S, Collins C A, Sham H L, Surowy T K, Liu G. Discovery of piperidine-aryl urea-based stearoyl-CoA desaturase 1 inhibitors. Bioorg Med Chem Lett. 2008; 18(15):4298-302). […] Despite conspicuous SCD1 expression in 4 of the 5 FTC cells tested, no response to A939572 was observed (FIG. 10D).

[5] = tested on: NT or FA cells; test: Proliferative dose response of thyroid cells; type: cell-based; conditions: 72H treatment
Description: as §1, §2

[6] = tested on: PTC cells; test: Proliferative dose response of thyroid cells; type: cell-based; conditions: 72H treatment; 2/5 PTC cells at high doses
Description: as §1, §2

Cc1nnc(-c2ccc(N3CCC(Oc4ccccc4C(F)(F)F)CC3)nn2)s1 [MF-438, 2-methyl-5-(6-(4-(2-(trifluoromethyl)phenoxy)piperidin-1-yl)pyridazin-3-yl)-1,3,4-thiadiazole]
reduction in cell proliferation [1]: approximately 20%
tumor response / mean tumor volume course ([2]; THJ16T xenograft): no tumor response
adverse events ([2]; mice bearing THJ16T xenograft): Discharge from the eye and squinting
survivin expression (IHC) ([2]; mouse, in vivo): induced survivin expression
CD31 (IHC), tumor vascularization ([2]; versus placebo control): trend toward decreased CD31
cleaved caspase-3 (IHC) ([2]; versus placebo control, only the combination group achieved statistical significance): increased cleaved caspase-3
HERPUD1 (IHC), marker for ER stress ([2]; versus placebo control, statistically significant combinatorial values): Increased HERPUD1

CNC(=O)c1cccc(NC(=O)N2CCC(Oc3ccccc3Cl)CC2)c1 [A939572]
IC50 [3]: 37 nM
proliferative response [4]: no response
proliferative response [5]: No response
proliferative response [6]: minimal response
